The text below walks through data of patent publication US11446287B2, “Compounds and methods for EP300 or CBP modulation and indications therefor” (Opna Immuno-Oncology SA, priority 2019, dated 2022).

In the test the target is T1, Recombinant human CBP containing the bromodomain (CBP-BD (1043-1159)) (Homo sapiens, UniProt Q92793).
T1 construct: Recombinant human CBP bromodomain (CBP-BD (1043-1159)); made in house; host or cells: E. coli BL21-CodonPlus (DE3), modified pET vector
Kind of test: CBP Alphascreen binding assay. The conditions noted are these: read-out: CREBBP (CBP) IC50. Summed up: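 Buffer: 50 mM HEPES pH 7.5, 50 mM NaCl, 0.01% BSA, 0.01% Triton X-100, 2 mM DTT. The signal was normalised to plate controls and fitted with a four-parameter curve to give IC50.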

T1 sequence (Q92793 1081-1197): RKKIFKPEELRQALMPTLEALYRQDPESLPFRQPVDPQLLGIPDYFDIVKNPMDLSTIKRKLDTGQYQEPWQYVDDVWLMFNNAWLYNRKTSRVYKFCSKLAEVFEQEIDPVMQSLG

Take `Cc1noc(C)c1-c1cnc2c(c1)c(-c1ccc(C(=O)O)cc1)cn2[C@@H](C)c1ccccn1` [P-0001, (S)-4-(5-(3,5-dimethylisoxazol-4-yl)-1-(1-(pyridin-2-yl)ethyl)-1H-pyrrolo[2,3-b]pyridin-3-yl)benzoic acid]: the IC50 fell in the range of 0.0001 to 1 µM.
Regarding `Cc1noc(C)c1-c1cnc2c(c1)c(-c1ccc(C(=O)O)cc1)cn2C(c1ccccn1)C1CCCC1` (stereo not drawn) [P-0002, 4-(1-(cyclopentyl(pyridin-2-yl)methyl)-5-(3,5-dimethylisoxazol-4-yl)-1H-pyrrolo[2,3-b]pyridin-3-yl)benzoic acid], the IC50 was in the range of 0.0001 to 1 µM.
For the compound `Cc1noc(C)c1-c1cnc2c(c1)c(-c1ccccc1)cn2C(c1ccccn1)C1CCCC1` (stereo not drawn) [P-0003, 4-(1-(cyclopentyl(pyridin-2-yl)methyl)-3-phenyl-1H-pyrrolo[2,3-b]pyridin-5-yl)-3,5-dimethylisoxazole], the IC50 was in the range of 8 to 1000 µM.
For `Cc1noc(C)c1-c1cnc2c(c1)c(-c1ccc(C(=O)O)cc1)cn2C(c1ccccn1)C1CCCCC1` (stereo not drawn) [P-0004, 4-(1-(cyclohexyl(pyridin-2-yl)methyl)-5-(3,5-dimethylisoxazol-4-yl)-1H-pyrrolo[2,3-b]pyridin-3-yl)benzoic acid] the value was 0.0001 to 1 µM.
As for `COC(=O)c1ccc(-c2cn(S(=O)(=O)c3ccc(C)cc3)c3ncc(-c4c(C)noc4C)cc23)cc1` [P-0005, methyl 4-(5-(3,5-dimethylisoxazol-4-yl)-1-tosyl-1H-pyrrolo[2,3-b]pyridin-3-yl)benzoate], the figure is 8 to 1000 µM; as for `Cc1noc(C)c1-c1cnc2c(c1)c(-c1ccnc(C(=O)O)c1)cn2S(=O)(=O)c1ccccc1` [P-0055, 4-(5-(3,5-dimethylisoxazol-4-yl)-1-(phenylsulfonyl)-1H-pyrrolo[2,3-b]pyridin-3-yl)picolinic acid], 0.0001 to 1 µM.
As for `COc1cccc(Cn2cc(-c3cccc(C(=O)O)c3)c3cc(-c4c(C)noc4C)cnc32)c1` [P-0056, 3-(5-(3,5-dimethylisoxazol-4-yl)-1-(3-methoxybenzyl)-1H-pyrrolo[2,3-]pyridin-3-yl)benzoic acid], the figure is 0.0001 to 1 µM; as for `COc1cccc(Cn2cc(-c3ccnc(C(=O)O)c3)c3cc(-c4c(C)noc4C)cnc32)c1` [P-0057, 4-(5-(3,5-dimethylisoxazol-4-yl)-1-(3-methoxybenzyl)-1H-pyrrolo[2,3-b]pyridin-3-yl)picolinic acid], 0.0001 to 1 µM.
For `Cc1noc(C)c1-c1cnc2c(c1)c(-c1cccc(C(=O)O)c1)cn2C(C1CC1)C1CC1` [P-0058, 3-(1-(dicyclopropylmethyl)-5-(3,5-dimethylisoxazol-4-yl)-1H-pyrrolo[2,3-b]pyridin-3-yl)benzoic acid], the IC50 is 0.0001 to 1 µM.
On to `Cc1noc(C)c1-c1cnc2c(c1)c(-c1cccc(C(=O)O)c1)cn2Cc1cccc(OC(F)(F)F)c1` [P-0059, 3-(5-(3,5-dimethylisoxazol-4-yl)-1-(3-(trifluoromethoxy)benzyl)-1H-pyrrolo[2,3-b]pyridin-3-yl)benzoic acid], for which the IC50 is 0.0001 to 1 µM.
For `Cc1noc(C)c1-c1cnc2c(c1)c(-c1cccc(C(=O)O)c1)cn2Cc1cccc(F)c1` [P-0060, 3-(5-(3,5-dimethylisoxazol-4-yl)-1-(3-fluorobenzyl)-1H-pyrrolo[2,3-b]pyridin-3-yl)benzoic acid] the value was 0.0001 to 1 µM; for `Cc1noc(C)c1-c1cnc2c(c1)c(-c1cccc(C(=O)O)c1)cn2Cc1cccc(Cl)c1` [P-0061, 3-(1-(3-chlorobenzyl)-5-(3,5-dimethylisoxazol-4-yl)-1H-pyrrolo[2,3-b]pyridin-3-yl)benzoic acid], 0.0001 to 1 µM.
As for `Cc1cccc(Cn2cc(-c3cccc(C(=O)O)c3)c3cc(-c4c(C)noc4C)cnc32)c1` [P-0062, 3-(5-(3,5-dimethylisoxazol-4-yl)-1-(3-methylbenzyl)-1H-pyrrolo[2,3-b]pyridin-3-yl)benzoic acid], the figure is 0.0001 to 1 µM; as for `Cc1noc(C)c1-c1cnc2c(c1)c(-c1cccc(C(=O)O)c1)cn2Cc1cccc(C(F)(F)F)c1` [P-0063, 3-(5-(3,5-dimethylisoxazol-4-yl)-1-(3-(trifluoromethyl)benzyl)-1H-pyrrolo[2,3-b]pyridin-3-yl)benzoic acid], 0.0001 to 1 µM.
As for `Cc1noc(C)c1-c1cnc2c(CC3CCC3)cn(-c3ccc(C(=O)O)cc3OC(F)F)c2c1` [P-0064, 4-(3-(cyclobutylmethyl)-6-(3,5-dimethylisoxazol-4-yl)-1H-pyrrolo[3,2-b]pyridin-1-yl)-3-(difluoromethoxy)benzoic acid], the figure is 0.0001 to 1 µM; as for `Cc1noc(C)c1-c1cnc2c(CC3CC3)cn(-c3ccnc(C(=O)O)c3)c2c1` [P-0065, 4-(3-(cyclopropylmethyl)-6-(3,5-dimethylisoxazol-4-yl)-1H-pyrrolo[3,2-b]pyridin-1-yl)picolinic acid], 0.0001 to 1 µM.
With `Cc1noc(C)c1-c1cnc2c(CC3CCC3)cn(-c3ccc(C(=O)O)cc3OC(F)(F)F)c2c1` [P-0066, 4-(3-(cyclobutylmethyl)-6-(3,5-dimethylisoxazol-4-yl)-1H-pyrrolo[3,2-b]pyridin-1-yl)-3-(trifluoromethoxy)benzoic acid], the IC50 fell in the range of 0.0001 to 1 µM.
As for `COc1cc(C(=O)O)cc(OC)c1-n1cc(CC2CCC2)c2ncc(-c3c(C)noc3C)cc21` [P-0067, 4-(3-(cyclobutylmethyl)-6-(3,5-dimethylisoxazol-4-yl)-1H-pyrrolo[3,2-b]pyridin-1-yl)-3,5-dimethoxybenzoic acid], the figure is 0.0001 to 1 µM.
Take `Cc1noc(C)c1-c1cnc2c(CC3CCC3)cn(-c3ccc(S(C)(=O)=O)c(F)c3)c2c1` [P-0068, 4-(3-(cyclobutylmethyl)-1-(3-fluoro-4-(methylsulfonyl)phenyl)-1H-pyrrolo[3,2-b]pyridin-6-yl)-3,5-dimethylisoxazole]: the IC50 was 0.0001 to 1 µM.
In the case of `Cc1noc(C)c1-c1cnc2c(c1)c(C#CC(=O)O)cn2Cc1ccccc1` [P-0069, 3-(1-benzyl-5-(3,5-dimethylisoxazol-4-yl)-1H-pyrrolo[2,3-b]pyridin-3-yl)propiolic acid], the IC50 is 0.0001 to 1 µM.
For `Cc1noc(C)c1-c1cnc2c(c1)c(-c1ccc(C(=O)O)cc1OC(F)(F)F)cn2[C@@H](C)c1ccccn1` [P-0070, (S)-4-(5-(3,5-dimethylisoxazol-4-yl)-1-(1-(pyridin-2-yl)ethyl)-1H-pyrrolo[2,3-b]pyridin-3-yl)-3-(trifluoromethoxy)benzoic acid] the value was 0.0001 to 1 µM.
As for `Cc1noc(C)c1-c1cnc2c(c1)c(-c1ccc(C(=O)O)cc1OC(F)F)cn2[C@@H](C)c1ccccn1` [P-0071, (S)-3-(difluoromethoxy)-4-(5-(3,5-dimethylisoxazol-4-yl)-1-(1-(pyridin-2-yl)ethyl)-1H-pyrrolo[2,3-b]pyridin-3-yl)benzoic acid], the figure is 0.0001 to 1 µM; as for `Cc1noc(C)c1-c1cnc2c(c1)c(-c1cccc(C(=O)O)c1)cn2C(C1CCC1)C1CCC1` [P-0072, 3-(1-(dicyclobutylmethyl)-5-(3,5-dimethylisoxazol-4-yl)-1H-pyrrolo[2,3-b]pyridin-3-yl)benzoic acid], 0.0001 to 1 µM; as for `Cc1noc(C)c1-c1cnc2c(c1)c(-c1cccc(C(=O)O)c1)cn2C(c1ccccn1)C1CCC1` (stereo not drawn) [P-0073, 3-(1-(cyclobutyl(pyridin-2-yl)methyl)-5-(3,5-dimethylisoxazol-4-yl)-1H-pyrrolo[2,3-b]pyridin-3-yl)benzoic acid], 0.0001 to 1 µM.
As for `Cc1noc(C)c1-c1cnc2c(CC3CCC3)cn(-c3c(Cl)cc(C(=O)O)cc3Cl)c2c1` [P-0074, 3,5-dichloro-4-(3-(cyclobutylmethyl)-6-(3,5-dimethylisoxazol-4-yl)-1H-pyrrolo[3,2-b]pyridin-1-yl)benzoic acid], the figure is 0.0001 to 1 µM.
Take `Cc1cc(C(=O)O)cnc1-n1cc(CC2CCC2)c2ncc(-c3c(C)noc3C)cc21` [P-0075, 6-(3-(cyclobutylmethyl)-6-(3,5-dimethylisoxazol-4-yl)-1H-pyrrolo[3,2-b]pyridin-1-yl)-5-methylnicotinic acid]: the IC50 lay within 0.0001 to 1 µM.
For `Cc1noc(C)c1-c1cnc2c(CC3CCC3)cn(-c3ccc(C#N)cc3)c2c1` [P-0076, 4-(3-(cyclobutylmethyl)-6-(3,5-dimethylisoxazol-4-yl)-1H-pyrrolo[3,2-b]pyridin-1-yl)benzonitrile] the value was 1 to 8 µM; for `Cc1noc(C)c1-c1cnc2c(CC3CCC3)cn(-c3ccnc(C#N)c3)c2c1` [P-0077, 4-(3-(cyclobutylmethyl)-6-(3,5-dimethylisoxazol-4-yl)-1H-pyrrolo[3,2-b]pyridin-1-yl)picolinonitrile], 0.0001 to 1 µM; for `Cc1noc(C)c1-c1cnc2c(c1)c(-c1cccc(C(=O)NC#N)c1)cn2Cc1ccccc1` [P-0078, 3-(1-benzyl-5-(3,5-dimethylisoxazol-4-yl)-1H-pyrrolo[2,3-b]pyridin-3-yl)-N-cyanobenzamide], 1 to 8 µM.
As to `Cc1noc(C)c1-c1cnc2c(c1)c(-c1cccc(C(=O)NO)c1)cn2Cc1ccccc1` [P-0079, 3-(1-benzyl-5-(3,5-dimethylisoxazol-4-yl)-1H-pyrrolo[2,3-b]pyridin-3-yl)-N-hydroxybenzamide], the IC50 was 0.0001 to 1 µM.
As for `Cc1noc(C)c1-c1cnc2c(c1)c(-c1ccc(C(=O)O)cc1)cn2C(C)c1ccccn1` (stereo not drawn) [P-0080, 4-(5-(3,5-dimethylisoxazol-4-yl)-1-(1-(pyridin-2-yl)ethyl)-1H-pyrrolo[2,3-b]pyridin-3-yl)benzoic acid], the figure is 1 to 8 µM.
Take `Cc1noc(C)c1-c1cnc2c(c1)c(-c1cccc(S(N)(=O)=O)c1)cn2Cc1ccccc1` [P-0081, 3-(1-benzyl-5-(3,5-dimethylisoxazol-4-yl)-1H-pyrrolo[2,3-b]pyridin-3-yl)benzenesulfonamide]: the IC50 was 1 to 8 µM.
For `CNS(=O)(=O)c1cccc(-c2cn(Cc3ccccc3)c3ncc(-c4c(C)noc4C)cc23)c1` [P-0082, 3-(1-benzyl-5-(3,5-dimethylisoxazol-4-yl)-1H-pyrrolo[2,3-b]pyridin-3-yl)-N-methylbenzenesulfonamide] the value was 8 to 1000 µM.
